Measurements as given in patent US20120122079A1, “INFECTION DETECTION METHODS AND SYSTEMS AND RELATED COMPOUNDS AND COMPOSITIONS” (priority 2010, published 2012).

Tested on: viral neuraminidase
Format: biochemical, influenza
Conditions: pH 5.5

Row | Compound | whether the substrate was cleaved and odorant released (decrease of the substrate signal and appearance of the cleavage products signal)
1 | CC(=O)NC1C(O)CC(OCC2(C)CC2CC2CC3CC3(C)C2(C)C)(C(=O)O)OC1CC(O)CO [javanol, Sodium ([(1R,2S)-1-methyl-2-[[(1R,3S,5S)-1,2,2-trimethyl-3-bicyclo[3.1.0]hexanyl]methyl]cyclopropyl]methyl-5-acetamido-3,5-dideoxy-α-D-glycero-D-galacto-2-nonulopyranoside)onate] | substrate is still present
2 | Sodium (4-(4-hydroxy-3-methoxyphenyl)butan-2-one-5-acetamido-3,5-dideoxy-α-D-glycero-D-galacto-2-nonulopyranoside)onate [zingerone] | significant loss of peak
